{"source": "patent US20240093034A1", "about": "“FLUORESCENT DYES” (EXOPHARM LIMITED, priority 2020, published 2024)", "key": {"[1]": {"system": "MSC-EVs", "test": "Dye labelling of MSC-EV preparations analysed by imaging flow cytometry (IFCM)", "method": "MSC-EVs were prepared form human platelet lysate containing MSC-conditioned media by polyethylene glycol 6000 precipitation followed by ultracentrifugation, as described previously (Borger, V. et al, 2020, Scaled Isolation of Mesenchymal Stem/Stromal Cell-Derived Extracellular Vesicles. Curr Protoc Stem Cell Biol 55, e128; Kordelas et al., 2014, MSC-derived exosomes: a novel tool to treat therapy-refractory graft-versus-host disease. Leukemia 28, 970-973; Ludwig et al., 2018, Precipitation with polyethylene glycol followed by washing and pelleting by ultracentrifugation enriches extracellular vesicles from tissue culture supernatants in small and large scales. J Extracell Vesicles 7, 1528109). Conditioned media were harvested every 48 h. Obtained MSC-EV preparations were diluted in NaCl-HEPES buffer (Sigma-Aldrich, Taufkirchen, Germany) such that 1 mL of final samples contained the preparation yield of the conditioned media of approximately 4.0×10^7 cells.\nThe staining with CFSE (Thermo Fisher Scientific, Darmstadt, Germany) was based on the manufacturer's protocol. Slight modifications were required to reduce the signal from unbound CFSE. Briefly, the CFSE stock solution was diluted to a working solution of 10 μM CFSE. The solution was centrifuged three times for 10 min at 17,000 × g. Subsequently, 25 μL of MSC-EV preparations, corresponding to the amount of EVs derived from 1×10^6 MSCs, were incubated with the centrifuged CFSE solution for 20 min at 37° C. The sample was diluted 1:20 to a final volume of 1 mL prior to analysis.\nThe staining of MSC-EV preparations with Calcein AM followed the manufacturer's instructions. Briefly, 25 μL of MSC-EV preparations were incubated with 25 μL of a 20 μM solution of Calcein AM (Thermo Fisher Scientific) for 40 min at 37° C. The sample was diluted 1:20 to a final volume of 1 mL to reduce background noise, avoiding the requirement of a washing step.\nThe staining of MSC-EV preparations with BODIPY-TR-Ceramide followed the manufacturer's instructions. Briefly, 25 μL of the MSC-EV preparation, corresponding to EVs purified from […], were incubated with 25 μL of a 20 μM solution of BODIPY TR Ceramide (Thermo Fisher Scientific) for 20 min at 37° C. 450 μL of 0.9% NaCl with 10mM HEPES (0.9% NaCl, Melsungen, B. Braun; HEPES, Thermo Fisher Scientific) buffer was added and the EVs were washed by using a Centrifugal Concentrator (Vivaspin 500; Sartorius, Gottingen, Germany). The retentate was adjusted to 500 μL prior to analysis.\nThe staining of MSC-EV preparations with PKH67 followed the manufacturer's instructions for labeling EVs (Thermo Fisher Scientific). Briefly, using 200 μL of given MSC-EV preparations, corresponding to EVs purified from 8×10^6 cells, the solution was adjusted with Diluent C to a final volume of 1 mL. […]"}, "[2]": {"system": "platelet-derived EVs", "test": "Labelling of extracellular vesicles with dyes (Superose 6 HPLC, UV and FLD detection)", "settings": "EV + 2 μM dye", "method": "Labelling of extracellular vesicles (EVs) with dyes 1-10 was performed according to the following procedure. 20 μL of platelet-derived EVs were incubated in HPLC vials with or without each dye at a final concentration of 2 μM dye, the dye stock solution being made up in water. For negative controls, an equivalent volume of the diluent solution was added to the EV solution. The sample was mixed gently. Each sample was subsequently incubated for 1 hr at 37° C. Samples were transferred and stored in the autosampler set at 4° C. A batch table was setup that injected unlabelled EVs prior to labelled EVs. A blank injection was run after each labelled EV experiment to ensure there was no carryover. 15 μL of each sample was injected onto a Superose 6 Increase column (3.2/300) from Cytiva. The flow rate was set at 0.15 mL min* The Shimadzu BioHPLC was run in isocratic mode with Buffer A: 1× PBS (phosphate-buffered saline), pH 7.4, 100 nm filtered. The column oven temperature was set at 30° C. Total run duration was 30 min. Data was collected using two detectors. The PDA (UV detector) was set to scan from 190-800 nm and a channel of the FLD (fluorescence detector) was set at 562 nm/583 nm (Ex/Em). Titration experiments were conducted to confirm that excess dye was removed. The areas of the void peaks from the 214 nm absorption and the 583 nm emission were calculated by the LabSolutions software using the manual integration function. To normalise the fluorescent signal, the total fluorescent area was divided by the UV 214 nm area. This ratio can be used to rank each dye, with higher ratios indicative of greater incorporation."}}, "data": [{"smiles": "CCCCCCCCCCCCCCCCCCN(C)C(=O)c1ccccc1-c1c2ccc(=[N+](CC)CC)cc-2oc2cc(N(CC)CC)ccc12.[Cl-]", "note": "[Dye 2, Rhodamine B N-methyloctadecylamide]", "values": [{"measurement": "labelling of sEVs in MSC-EV preparations (conclusion)", "setting": "[1]; IFCM, with anti-CD9, anti-CD63, anti-CD81 counterstaining where done", "result": "successfully labels most of the sEVs"}, {"measurement": "labelled objects in MSC-EV preparations (FIG. 8)", "setting": "[1]; dye + MSC-EVs", "result": "solid populations of labelled objects were observed"}, {"measurement": "FLD area (EV + dye)", "setting": "[2]; 1 hr 37° C., void peak area, 562 nm/583 nm (Ex/Em)", "result": 2493643}, {"measurement": "Area FLD/Area UV (EV + dye)", "setting": "[2]; higher ratio = greater incorporation", "result": 4.50}]}]}
